Assays:
C57BL6 mice [1] = experiment: Sleep monitoring after oral dosing (gavage) of Cannabinol in olive oil; format: in vivo, mouse; conditions: all 5 doses (0.01-0.5 mg/Kg) by oral gavage in olive oil, single administration at 3 consecutive days, vs pure olive oil
Description: (§1) The experiment is designed to test a range of concentrations around the equivalent previously tested in humans for single-dose kinetics. Animal experiments were performed following the directive 2010/63/EU on the protection of animals used for scientific purposes.
(§2) 6 groups of 5-6 male C57BL6 of approximately 28 g body weight (range 27-30 g) with the use of one cage for 3 mice: Group 0: Pure Olive Oil, Group 1: CBN at 0.01 mg/Kg body weight, Group 2: CBN at 0.05 mg/Kg body weight, Group 3: CBN at 0.1 mg/Kg body weight, Group 4: CBN at 0.25 mg/Kg body weight and Group 5: CBN at 0.50 mg/Kg body weight
Solutions (named CBN 0, CBN 1, CBN 2, CBN 3, CBN 4, CBN 5, Pure Olive Oil) having different cannabinol concentrations dissolved in olive oil were prepared in sterile conditions, under a laminar flood hood. Pure olive oil was used as a negative control.
The volume that can be administered to the animal should not exceed 10 ml/kg. For a mouse of 20 g the maximum volume corresponds to 0.2 ml. For this procedure a volume of 0.1 ml will be used (half of the maximum volume). 1 ml of each stock solution (cannabinol, CBN 1-5 and pure olive oil, POO) was dispensed into Falcon vials. Prior to the administration, the weight of each mouse was recorded and the appropriate amount of cannabinol solution was determined. […]

C57BL6 mice [2] = experiment: Safety data, body weight and organ weight after oral dosing (gavage) of Cannabinol; format: in vivo, mouse
Description: as §1, §2
The volume that can be administered to the animal should not exceed 10 ml/kg. For a mouse of 20 g the maximum volume corresponds to 0.2 ml. For this procedure a volume of 0.1 ml will be used (half of the maximum volume). 1 ml of each stock solution (cannabinol, CBN 1-5 and pure olive oil, POO) was dispensed into Falcon vials. Prior to the administration, the weight of each mouse was recorded and the appropriate amount of cannabinol solution was determined. For the POO group always 0.1 ml was dispensed in 6 an eppendorf vessel, for the other experimental groups transfer the amounts of CBN 1-5 and POO according to table 2 were used in an eppendorf vial. The amounts to be administered were adjusted depending on mouse group and individual weights.
Monitor the animal for potential complications: Esophagitis (inflammation of the oesophagus), perforation of the oesophagus or trachea, damage to the cardiac sphincter (upper stomach sphincter) insertion of needle and solution into the lungs, lung perforation, damage to the oral cavity, aspiration of solution into the lungs from regurgitation, traumatic injuries related to improper restrain.
The mean weights (and standard deviations) of spleen, liver and kidney from all mice groups at sacrifice are monitored.

In the case of `CCCCCc1cc(O)c2c(c1)OC(C)(C)c1ccc(C)cc1-2` [Cannabinol], the “number of mice sleeping 30 minutes after administration” value (C57BL6 mice [1]) is reported as “increased significantly”, the “aggressive behaviour and clinical alterations (tremors)” value (C57BL6 mice [2]; 0.01-0.5 mg/Kg daily by oral gavage, male C57BL6 mice) is reported as “No presence of aggressive behaviour, neither evident clinical alterations” and the “liver and kidney weights at sacrifice” value (C57BL6 mice [2]; among experimental groups, 0.01-0.5 mg/Kg oral) is reported as “No significant changes”. The body weight change (C57BL6 mice [2]; within experimental groups with time or among groups at fixed time, 0.01-0.5 mg/Kg oral) was “No significant changes”.

Source: US9763991B2, “Composition for the treatment of neurobehavioral disorders” (Cannabis Science International Holding B.V., priority 2013, dated 2017)
